Test results taken from ChEMBL document CHEMBL5727982, “Inhibitors of cyclin-dependent kinase 7 (CDK7)” (2020).

Biological target: Cyclin-dependent kinase 7/ cyclin H (Homo sapiens, UniProt P50613)
Test: In Vitro Kinase Assay: In vitro kinase assays with immunoprecipitated proteins (or recombinant CAK complexes) were performed as follows. Kinase reactions were performed in 25 μL of final volume of reaction buffer (50 mM Hepes, pH 7.5, 150 mM NaCl, 10 mM MgCl2, 5% glycerol, 25 μM ATP, and 10 μCi of [γ-32P]ATP). Each reaction contained 1 μg of RNAP II. Incubation was at 30° C. for 30-45 min. Reactions were terminated by addition of 5 μL of 5×SDS-PAGE sample buffer and incubated at 95° C. for 5 min. Reactions were analyzed by SDS-PAGE, and the dried gel was exposed to film or PhosphorImager plate.
Format: protein-complex assay

Cyclin-dependent kinase 7/ cyclin H, sequence (P51946 whole entry): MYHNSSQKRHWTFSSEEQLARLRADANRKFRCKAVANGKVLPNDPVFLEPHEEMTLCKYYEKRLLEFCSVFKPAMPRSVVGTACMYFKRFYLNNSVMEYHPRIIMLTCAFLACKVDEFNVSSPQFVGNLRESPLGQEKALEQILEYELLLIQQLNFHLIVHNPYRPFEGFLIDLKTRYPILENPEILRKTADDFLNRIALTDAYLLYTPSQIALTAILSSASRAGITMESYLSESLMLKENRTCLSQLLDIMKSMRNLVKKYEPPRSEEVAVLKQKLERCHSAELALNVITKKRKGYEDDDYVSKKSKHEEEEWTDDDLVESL
Cyclin-dependent kinase 7/ cyclin H, sequence (P50613 whole entry): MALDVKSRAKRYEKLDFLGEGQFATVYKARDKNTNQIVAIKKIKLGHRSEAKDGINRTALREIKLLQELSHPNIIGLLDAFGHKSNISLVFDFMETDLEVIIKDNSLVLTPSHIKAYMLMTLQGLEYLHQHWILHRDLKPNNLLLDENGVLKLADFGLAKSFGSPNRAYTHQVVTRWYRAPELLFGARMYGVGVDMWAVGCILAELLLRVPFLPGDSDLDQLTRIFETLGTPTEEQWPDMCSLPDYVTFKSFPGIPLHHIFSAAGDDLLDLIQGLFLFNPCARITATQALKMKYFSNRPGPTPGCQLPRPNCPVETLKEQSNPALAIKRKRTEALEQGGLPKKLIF

IC50: < 100 nM
SMILES: CN(C)C/C=C/C(=O)Nc1ccc(S(=O)(=O)Nc2cccc(Nc3ncc(Cl)c(-c4c[nH]c5ccccc45)n3)c2)cc1
